Experimental data as given in patent publication US12077503B2, “Substituted cyclic amides and their use as herbicides” (FMC CORPORATION, priority 2015, dated 2024).

Legend:
Type in all cases: in vivo
rice (Oryza sativa) = experiment: Test C flooded paddy test; conditions: Flood, 0 is no effect, 100 is complete control
In short: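 Plants grown to the 2-leaf stage in pots flooded to 3 cm above soil; compounds applied directly into the paddy water, depth held throughout. After 13 to 15 d in greenhouse, injury visually rated against untreated controls on a 0–100 scale (0 no effect, 100 complete control).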

[1] = tested on: nutsedge, yellow (yellow nutsedge, Cyperus esculentus); experiment: Test C preemergence; conditions: for Plant response rating, Nutsedge, Yellow: scale 0 to 100, 0 no effect, 100 complete control
In short: (§1)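 Preemergence: sow in loam-sand soil and treat. Postemergence: grow in peat-moss/vermiculite medium to 2–18 cm (1–4 leaves) and spray. Compound in non-phytotoxic solvent with surfactant; keep in greenhouse 13–15 d; score visually against controls, 0 (none) to 100 (full control).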

[2] = tested on: crabgrass, large (large crabgrass, Digitaria sanguinalis); experiment: Test C preemergence; conditions: for Plant response rating, Crabgrass, Large: scale 0 to 100, 0 no effect, 100 complete control
In short: as §1

[3] = tested on: pigweed (Amaranthus retroflexus); experiment: Test C preemergence; conditions: for Plant response rating, Pigweed: scale 0 to 100, 0 no effect, 100 complete control
In short: as §1

[4] = tested on: Galium (catchweed bedstraw, Galium aparine); experiment: Test C preemergence; conditions: for Plant response rating, Galium: scale 0 to 100, 0 no effect, 100 complete control
In short: as §1

corn (Zea mays) = experiment: Test C preemergence; conditions: for Plant response rating, Corn: scale 0 to 100, 0 no effect, 100 complete control
In short: as §1

soybean (Glycine max) = experiment: Test C preemergence; conditions: for Plant response rating, Soybean: scale 0 to 100, 0 no effect, 100 complete control
In short: as §1

[5] = tested on: johnsongrass (Sorghum halepense); experiment: Test C preemergence; conditions: for Plant response rating, Johnsongrass: scale 0 to 100, 0 no effect, 100 complete control
In short: as §1

[6] = tested on: foxtail, giant (giant foxtail, Setaria faberii); experiment: Test C preemergence; conditions: for Plant response rating, Foxtail, Giant: scale 0 to 100, 0 no effect, 100 complete control
In short: as §1

[7] = tested on: velvetleaf (Abutilon theophrasti); experiment: Test C preemergence; conditions: for Plant response rating, Velvetleaf: scale 0 to 100, 0 no effect, 100 complete control
In short: as §1

[8] = tested on: blackgrass (Alopecurus myosuroides); experiment: Test C preemergence; conditions: for Plant response rating, Blackgrass: scale 0 to 100, 0 no effect, 100 complete control
In short: as §1

[9] = tested on: lambsquarters (Chenopodium album); experiment: Test C preemergence; conditions: for Plant response rating, Lambsquarters: scale 0 to 100, 0 no effect, 100 complete control
In short: as §1

[10] = tested on: barnyardgrass (Echinochloa crus-galli); experiment: Test C preemergence; conditions: for Plant response rating, Barnyardgrass: scale 0 to 100, 0 no effect, 100 complete control
In short: as §1

[11] = tested on: oilseed rape (Brassica napus); experiment: Test C preemergence; conditions: for Plant response rating, Oilseed Rape: scale 0 to 100, 0 no effect, 100 complete control
In short: as §1

[12] = tested on: ryegrass, Italian (Italian ryegrass, Lolium multiflorum); experiment: Test C preemergence; conditions: for Plant response rating, Ryegrass, Italian: scale 0 to 100, 0 no effect, 100 complete control
In short: as §1

[13] = tested on: wheat (winter wheat, Triticum aestivum); experiment: Test C preemergence; conditions: for Plant response rating, Wheat: scale 0 to 100, 0 no effect, 100 complete control
In short: as §1

[14] = tested on: ragweed (common ragweed, Ambrosia elatior); experiment: Test C preemergence; conditions: for Plant response rating, Ragweed: scale 0 to 100, 0 no effect, 100 complete control
In short: as §1

[15] = tested on: morningglory (Ipomoea coccinea); experiment: Test C preemergence; conditions: for Plant response rating, Morningglory: scale 0 to 100, 0 no effect, 100 complete control
In short: as §1

[16] = tested on: waterhemp (common waterhemp, Amaranthus rudis); experiment: Test C preemergence; conditions: for Plant response rating, Waterhemp: scale 0 to 100, 0 no effect, 100 complete control
In short: as §1

[17] = 31 g ai/ha, 0 is no effect, 100 is complete control

CN1CC(c2ccc(F)c(C(F)(F)F)c2)C(C(=O)Nc2ccccc2S(C)(=O)=O)C1=O (stereo not shown) [Compound 612]
Plant response rating (scale of 0 to 100), Rice (rice (Oryza sativa); 31 g ai/ha): 0
Plant response rating (scale of 0 to 100), Rice (rice (Oryza sativa); 62 g ai/ha): 0
Plant response rating (scale of 0 to 100), Rice (rice (Oryza sativa); 125 g ai/ha): 0
Plant response rating (scale of 0 to 100), Rice (rice (Oryza sativa); 250 g ai/ha): 15
Plant response rating (scale of 0 to 100), Nutsedge, Yellow [1, 17]: 0
Plant response rating, Nutsedge, Yellow ([1]; 62 g ai/ha): 0
Plant response rating, Nutsedge, Yellow ([1]; 125 g ai/ha): 25
Plant response rating, Nutsedge, Yellow ([1]; 250 g ai/ha): 35
Plant response rating (scale of 0 to 100), Crabgrass, Large [2, 17]: 98
Plant response rating, Crabgrass, Large ([2]; 62 g ai/ha): 95
Plant response rating, Crabgrass, Large ([2]; 125 g ai/ha): 98
Plant response rating, Crabgrass, Large ([2]; 250 g ai/ha): 100
Plant response rating (scale of 0 to 100), Pigweed [3, 17]: 60
Plant response rating, Pigweed ([3]; 62 g ai/ha): 80
Plant response rating, Pigweed ([3]; 125 g ai/ha): 90
Plant response rating, Pigweed ([3]; 250 g ai/ha): 90
Plant response rating (scale of 0 to 100), Galium [4, 17]: 80
Plant response rating, Galium ([4]; 62 g ai/ha): 0
Plant response rating, Galium ([4]; 125 g ai/ha): 90
Plant response rating, Galium ([4]; 250 g ai/ha): 90
Plant response rating (scale of 0 to 100), Corn (corn (Zea mays); [17]): 40
Plant response rating, Corn (corn (Zea mays); 62 g ai/ha): 30
Plant response rating, Corn (corn (Zea mays); 125 g ai/ha): 65
Plant response rating, Corn (corn (Zea mays); 250 g ai/ha): 70
Plant response rating (scale of 0 to 100), Soybean (soybean (Glycine max); [17]): 0
Plant response rating, Soybean (soybean (Glycine max); 62 g ai/ha): 0
Plant response rating, Soybean (soybean (Glycine max); 125 g ai/ha): 10
Plant response rating, Soybean (soybean (Glycine max); 250 g ai/ha): 0
Plant response rating (scale of 0 to 100), Johnsongrass [5, 17]: 40
Plant response rating, Johnsongrass ([5]; 62 g ai/ha): 60
Plant response rating, Johnsongrass ([5]; 125 g ai/ha): 85
Plant response rating, Johnsongrass ([5]; 250 g ai/ha): 90
Plant response rating (scale of 0 to 100), Foxtail, Giant [6, 17]: 90
Plant response rating, Foxtail, Giant ([6]; 62 g ai/ha): 90
Plant response rating, Foxtail, Giant ([6]; 125 g ai/ha): 95
Plant response rating, Foxtail, Giant ([6]; 250 g ai/ha): 95
Plant response rating (scale of 0 to 100), Velvetleaf [7, 17]: 0
Plant response rating, Velvetleaf ([7]; 62 g ai/ha): 10
Plant response rating, Velvetleaf ([7]; 125 g ai/ha): 30
Plant response rating, Velvetleaf ([7]; 250 g ai/ha): 60
Plant response rating (scale of 0 to 100), Blackgrass [8, 17]: 70
Plant response rating, Blackgrass ([8]; 62 g ai/ha): 90
Plant response rating, Blackgrass ([8]; 125 g ai/ha): 90
Plant response rating, Blackgrass ([8]; 250 g ai/ha): 95
Plant response rating (scale of 0 to 100), Lambsquarters [9, 17]: 45
Plant response rating, Lambsquarters ([9]; 62 g ai/ha): 45
Plant response rating, Lambsquarters ([9]; 125 g ai/ha): 40
Plant response rating, Lambsquarters ([9]; 250 g ai/ha): 70
Plant response rating (scale of 0 to 100), Barnyardgrass [10, 17]: 85
Plant response rating, Barnyardgrass ([10]; 62 g ai/ha): 95
Plant response rating, Barnyardgrass ([10]; 125 g ai/ha): 95
Plant response rating, Barnyardgrass ([10]; 250 g ai/ha): 98
Plant response rating (scale of 0 to 100), Oilseed Rape [11, 17]: 30
Plant response rating, Oilseed Rape ([11]; 62 g ai/ha): 50
Plant response rating, Oilseed Rape ([11]; 125 g ai/ha): 70
Plant response rating, Oilseed Rape ([11]; 250 g ai/ha): 90
Plant response rating (scale of 0 to 100), Ryegrass, Italian [12, 17]: 20
Plant response rating, Ryegrass, Italian ([12]; 62 g ai/ha): 40
Plant response rating, Ryegrass, Italian ([12]; 125 g ai/ha): 50
Plant response rating, Ryegrass, Italian ([12]; 250 g ai/ha): 80
Plant response rating (scale of 0 to 100), Wheat [13, 17]: 20
Plant response rating, Wheat ([13]; 62 g ai/ha): 55
Plant response rating, Wheat ([13]; 125 g ai/ha): 25
Plant response rating, Wheat ([13]; 250 g ai/ha): 90
Plant response rating (scale of 0 to 100), Ragweed [14, 17]: 10
Plant response rating, Ragweed ([14]; 62 g ai/ha): 10
Plant response rating, Ragweed ([14]; 125 g ai/ha): 55
Plant response rating, Ragweed ([14]; 250 g ai/ha): 65
Plant response rating (scale of 0 to 100), Morningglory [15, 17]: 0
Plant response rating, Morningglory ([15]; 62 g ai/ha): 0
Plant response rating, Morningglory ([15]; 125 g ai/ha): 25
Plant response rating, Morningglory ([15]; 250 g ai/ha): 55
Plant response rating (scale of 0 to 100), Waterhemp [16, 17]: 75
Plant response rating, Waterhemp ([16]; 62 g ai/ha): 85
Plant response rating, Waterhemp ([16]; 125 g ai/ha): 90
Plant response rating, Waterhemp ([16]; 250 g ai/ha): 95
